Measured values taken from publication PMC3923053, “Effects of Various Phytochemicals on Indoleamine 2,3-Dioxygenase 1 Activity: Galanal Is a Novel, Competitive Inhibitor of the Enzyme” (PLoS ONE, 2014).

Target: T1, Indoleamine 2,3-dioxygenase 1 (IDO1) (Homo sapiens, UniProt P14902)
T1 construct: recombinant human IDO1, N-His-tag, expressed in E. coli
Experiment: methylene blue/ascorbate assay of purified recombinant IDO1, HPLC; Lineweaver-Burk kinetics
Type: biochemical

T1 sequence (P14902 whole entry): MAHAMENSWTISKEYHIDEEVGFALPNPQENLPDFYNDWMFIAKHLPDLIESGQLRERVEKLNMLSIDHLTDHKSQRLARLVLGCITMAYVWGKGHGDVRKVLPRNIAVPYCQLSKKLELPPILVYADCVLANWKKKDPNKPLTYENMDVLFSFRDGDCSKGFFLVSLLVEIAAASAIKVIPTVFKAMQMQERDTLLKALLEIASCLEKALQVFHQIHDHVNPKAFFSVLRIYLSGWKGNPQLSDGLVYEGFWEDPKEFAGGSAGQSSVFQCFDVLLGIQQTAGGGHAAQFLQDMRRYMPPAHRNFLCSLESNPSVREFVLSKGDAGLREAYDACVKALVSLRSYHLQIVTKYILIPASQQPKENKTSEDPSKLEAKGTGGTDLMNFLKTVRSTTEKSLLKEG

IC50: 7.7 µM
Substance: galanal
